# Source: PMC9945734 (BMC Medicine, 2023)
# Read-outs that look alike come from different tables or passages of the source.
# How the values were obtained:
# PC-3-KQ cells = experiment: 3D spheroid invasion assay and screening of FDA-approved drugs; assay type: cell-based, human; details: Homo sapiens; for activity at 0.01 µM / activity at 0.1 µM / activity at 1 µM / activity at 10 µM: 72 h, compared to vehicle control, read-out: Invasion rates (%) of each drug’s multiple concentrations
# In short: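 Cells were clustered into spheroids by centrifugation and grown 3 days, then embedded in matrigel-medium containing drug on day 4 and cultured another 3 days. Drugs were screened at 10 μM first, then at 0–10 μM, in duplicate wells. Invasion area is total area minus core sphere area from phase-contrast images.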
# [1] = tested on: DU 145 (KLF5 null) cells expressing KLF5^K369R; experiment: CCK-8 cell viability assay; assay type: cell-based; details: Homo sapiens, CCK-8, 48 h
# Method: (§1) According to the manufacturer's instructions, cell viability was measured using a kit from Beyotime Biotechnology. Briefly, cells were seeded onto 96-well plates at 5 × 10^3 cells per well, incubated overnight, and then treated for 48 h with drugs at 0, 0.02, 0.05, 0.14, 0.41, 1.23, 3.7, 11.1, 33.3, and 100 μM. Four drugs were analyzed: furagin, nifuratel, nitazoxanide, and retapamulin. At the end of drug treatment, the medium was removed, the CCK-8 solution was added into each well at 100 μL/well and incubated for 1.5 h at 37°C, and the optical density (OD) was measured at 450 nm using a microplate reader (BioTek).
# [2] = tested on: DU 145 (KLF5 null) cells expressing KLF5; experiment: CCK-8 cell viability assay; assay type: cell-based; details: Homo sapiens, CCK-8, 48 h
# Method: as §1
# [3] = tested on: PC-3 (KLF5 null) cells expressing KLF5^K369R; experiment: CCK-8 cell viability assay; assay type: cell-based; details: Homo sapiens, CCK-8, 48 h
# Method: as §1
# [4] = tested on: PC-3 (KLF5 null) cells expressing KLF5; experiment: CCK-8 cell viability assay; assay type: cell-based; details: Homo sapiens, CCK-8, 48 h
# Method: as §1
# MYBL2 = MYBL2 immunohistochemical staining of bone tissues; assay type: in vivo, Balb/c nude mice; details: treatment in mice
# Method: Immunohistochemical staining was conducted following established procedures. Briefly, 4-μm sections of bone tissues were deparaffinized in xylene and rehydrated in gradient ethanol. The endogenous antigen was retrieved by incubating slides in 10 mM sodium citrate buffer (Cat #: C1010, Solarbio, Beijing, China) overnight in an oven at 65°C. After antigen retrieving, tissue sections were incubated with 3% hydrogen peroxide at room temperature for 10 min to block the endogenous […] activity. They were then incubated in a blocking solution (0.1% albumin bovine V mixed with 10% goat serum) for 40 min, and a solution containing a primary antibody (MMP9, 1:1000, Cat #: ab76003, Abcam, Cambridge, UK; MYBL2, 1:100, Cat #: ab76009, Abcam) for 1.5 h. After rinsing with PBS for 3 times, slides were incubated with the secondary antibody solution for 15 min and then with the DAB solution using the MaxVision II HRP kit (Cat #: KIT-5920, MXB Biotechnologies, Fuzhou, China). Nuclei were counterstained with hematoxylin for 2 min. Slides were then dehydrated with gradient ethanol (75–100%) and xylene and mounted with coverslips using the quick-hardening mounting medium. All slides were scanned using an Aperio VERSA 8 Scanner System (Leica, Wetzlar, Germany) and analyzed using the Image J software (Image J 1.48v, NIH, Bethesda, MD, USA).
# [5] = secondary screening of 87 hit compounds (Table S1)
# [6] = third screening of 25 hit compounds (Table S2)
smiles,measurement,setting,value
CC(=O)Oc1ccccc1C(=O)Nc1ncc([N+](=O)[O-])s1 [Nitazoxanide],activity at 0.01 µM,"PC-3-KQ cells; 0.01 μM (first column so headed), secondary screening of 87 hit compounds (Table S1)",79.3%
same,activity at 0.01 µM,"PC-3-KQ cells; 0.01 μM (first column so headed), third screening of 25 hit compounds (Table S2)",94.1%
same,activity at 0.01 µM,"PC-3-KQ cells; 0.01 μM (second column so headed), secondary screening of 87 hit compounds (Table S1)",79.5%
same,activity at 0.01 µM,"PC-3-KQ cells; 0.01 μM (second column so headed), third screening of 25 hit compounds (Table S2)",94.3%
same,activity at 0.1 µM,PC-3-KQ cells; [5],45.6%
same,activity at 0.1 µM,PC-3-KQ cells; [6],44%
same,activity at 1 µM,PC-3-KQ cells; [5],4.45%
same,activity at 1 µM,PC-3-KQ cells; [6],6.41%
same,activity at 10 µM,PC-3-KQ cells; [5],3.4%
same,activity at 10 µM,PC-3-KQ cells; [6],1.24%
same,inhibition at 0.1 µM,"PC-3-KQ cells; at 0.1 μM, read-out: inhibition of cell invasion",> 50%
same,IC50,[1],49.2 ± 10.1 µM
same,IC50,[2],55.6 ± 1.4 µM
same,IC50,[3],11.4 ± 1 µM
same,IC50,[4],7 ± 0.7 µM
same,MYBL2 protein expression in bone tissues (IHC),MYBL2,significantly decreased MYBL2 protein expression
